The source of these data is patent US12240816B2, “Deuterated compounds and uses thereof” (Aldeyra Therapeutics, Inc., priority 2015, dated 2025).

One test concerns the target MAO-A (Rattus norvegicus, UniProt P21396). The test can be described thus: MAO-A (antagonist radioligand) binding assay. Conditions: 1.0E−05M.
The target of the next test is guanylyl cyclase (h) (Homo sapiens, UniProt Q02108+Q02153). Type of test: biochemical. Conditions: guanylyl cyclase (h) (activator effect); 1.0E−05M.
A further test addresses acetylcholinesterase (h) (Homo sapiens, UniProt P22303). The test can be described thus: biochemical.

Each structure is given as a SMILES string. Where two headings read alike, the source gives them in different places.

Sequence of acetylcholinesterase (h) (P22303 32-614): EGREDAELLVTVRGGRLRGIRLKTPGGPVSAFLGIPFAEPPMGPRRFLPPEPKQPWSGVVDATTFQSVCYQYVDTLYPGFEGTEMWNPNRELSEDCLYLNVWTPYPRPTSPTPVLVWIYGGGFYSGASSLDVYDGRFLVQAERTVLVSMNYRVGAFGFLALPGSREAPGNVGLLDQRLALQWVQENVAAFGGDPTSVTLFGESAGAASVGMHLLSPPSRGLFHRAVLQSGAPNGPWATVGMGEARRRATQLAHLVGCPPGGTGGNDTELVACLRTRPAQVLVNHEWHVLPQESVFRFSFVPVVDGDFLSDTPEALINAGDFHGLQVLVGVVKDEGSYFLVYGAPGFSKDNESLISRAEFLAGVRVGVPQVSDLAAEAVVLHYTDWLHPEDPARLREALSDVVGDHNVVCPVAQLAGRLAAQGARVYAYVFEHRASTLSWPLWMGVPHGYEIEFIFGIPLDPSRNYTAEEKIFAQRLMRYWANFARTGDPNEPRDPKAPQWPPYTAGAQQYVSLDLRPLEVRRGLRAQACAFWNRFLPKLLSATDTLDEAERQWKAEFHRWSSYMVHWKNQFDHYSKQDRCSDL
Sequence of guanylyl cyclase (h) (Q02153 whole entry): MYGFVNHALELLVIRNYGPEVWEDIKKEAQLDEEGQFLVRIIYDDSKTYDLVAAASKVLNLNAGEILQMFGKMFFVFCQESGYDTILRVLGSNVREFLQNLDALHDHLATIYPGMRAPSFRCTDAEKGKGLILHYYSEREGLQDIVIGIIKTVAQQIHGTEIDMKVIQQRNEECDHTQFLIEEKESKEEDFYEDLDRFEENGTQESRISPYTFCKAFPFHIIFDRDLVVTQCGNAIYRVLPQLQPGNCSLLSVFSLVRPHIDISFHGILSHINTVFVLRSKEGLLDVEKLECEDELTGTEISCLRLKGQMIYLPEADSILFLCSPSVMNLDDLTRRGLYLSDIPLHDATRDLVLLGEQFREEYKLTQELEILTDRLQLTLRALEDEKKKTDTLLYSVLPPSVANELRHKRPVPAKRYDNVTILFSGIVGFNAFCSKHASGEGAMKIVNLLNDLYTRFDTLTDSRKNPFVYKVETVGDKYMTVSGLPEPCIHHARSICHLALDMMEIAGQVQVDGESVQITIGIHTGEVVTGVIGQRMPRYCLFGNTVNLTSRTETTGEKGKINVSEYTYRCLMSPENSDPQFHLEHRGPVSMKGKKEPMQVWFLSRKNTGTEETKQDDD
Sequence of guanylyl cyclase (h) (Q02108 whole entry): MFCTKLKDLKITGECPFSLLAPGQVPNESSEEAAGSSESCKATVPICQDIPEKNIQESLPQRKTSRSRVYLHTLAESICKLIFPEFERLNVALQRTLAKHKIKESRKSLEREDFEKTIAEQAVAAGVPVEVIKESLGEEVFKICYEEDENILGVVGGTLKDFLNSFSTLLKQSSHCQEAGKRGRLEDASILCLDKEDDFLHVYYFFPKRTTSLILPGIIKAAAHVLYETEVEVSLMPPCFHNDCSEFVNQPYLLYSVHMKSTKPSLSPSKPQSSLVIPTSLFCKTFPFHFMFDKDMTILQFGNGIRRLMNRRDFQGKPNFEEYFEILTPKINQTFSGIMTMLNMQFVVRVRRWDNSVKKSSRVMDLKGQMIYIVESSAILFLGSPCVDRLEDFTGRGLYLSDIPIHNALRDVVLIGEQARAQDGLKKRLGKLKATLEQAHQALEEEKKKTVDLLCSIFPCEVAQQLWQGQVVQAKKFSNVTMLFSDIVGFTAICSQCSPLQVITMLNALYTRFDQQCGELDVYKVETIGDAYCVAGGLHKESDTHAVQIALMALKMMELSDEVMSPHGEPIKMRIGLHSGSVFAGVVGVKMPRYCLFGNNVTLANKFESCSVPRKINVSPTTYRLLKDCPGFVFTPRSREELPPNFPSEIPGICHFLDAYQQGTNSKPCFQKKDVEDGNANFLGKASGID
Sequence of MAO-A (P21396 whole entry): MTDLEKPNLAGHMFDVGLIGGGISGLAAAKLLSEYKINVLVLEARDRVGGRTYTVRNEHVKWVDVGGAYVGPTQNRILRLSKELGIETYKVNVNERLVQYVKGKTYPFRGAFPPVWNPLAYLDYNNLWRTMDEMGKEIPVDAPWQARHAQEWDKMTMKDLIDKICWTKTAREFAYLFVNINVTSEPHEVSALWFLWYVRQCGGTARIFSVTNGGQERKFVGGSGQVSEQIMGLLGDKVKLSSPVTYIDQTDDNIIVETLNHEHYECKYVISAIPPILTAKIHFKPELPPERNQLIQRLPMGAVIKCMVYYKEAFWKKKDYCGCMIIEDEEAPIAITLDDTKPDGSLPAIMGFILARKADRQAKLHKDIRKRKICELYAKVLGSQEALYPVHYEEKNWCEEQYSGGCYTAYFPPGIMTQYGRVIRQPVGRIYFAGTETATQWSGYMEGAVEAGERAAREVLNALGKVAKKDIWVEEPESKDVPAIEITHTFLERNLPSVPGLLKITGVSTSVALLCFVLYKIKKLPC

One may read the inhibition as the drop in the measured response relative to a control, in per cent. `[2H]C([2H])([2H])C(O)(c1nc2ccc(Cl)cc2cc1N)C([2H])([2H])[2H]` [Compound I-1]: the inhibition at 10 µM at MAO-A (read-out: % Inhibition of Control Specific Binding 1st) was 66.4%; at MAO-A (read-out: % Inhibition of Control Specific Binding 2nd), 70.7%; at MAO-A (read-out: % Inhibition of Control Specific Binding Mean) it was 68.5%; at acetylcholinesterase (h) (read-out: % inhibition of Control Values 1st), 45.8%; at acetylcholinesterase (h) (read-out: % inhibition of Control Values 2nd), 60.1%; on acetylcholinesterase (h) (read-out: % inhibition of Control Values Mean) it was 52.9%. Also, the “% of Control Values 1st” value on guanylyl cyclase (h) was 0.2%. Besides, the “% of Control Values 2nd” value at guanylyl cyclase (h) is 0.3%. For the same molecule, the “% of Control Values Mean” value at guanylyl cyclase (h) is 0.2%.
